Values quoted from earlier work as cited in patent US20200147118A1, “COMPOSITIONS AND METHODS FOR DETECTION, RISK ASSESSMENT AND TREATMENT OF DIABETES, OBESITY, AND INFLAMMATION” (OTTAWA HEART INSTITUTE RESEARCH CORPORATION, priority 2018, published 2020).

Test system: iNKTs
Conditions: obese mice, WT vehicle vs WT αGalCer, dataset GSE36032

CCCCCCCCCCCCCCCCCCCCCCCCCC(=O)N[C@@H](CO[C@H]1O[C@H](CO)[C@H](O)[C@H](O)[C@H]1O)[C@H](O)[C@H](O)CCCCCCCCCCCCCC [αGalCer]
E4bp4 expression in adipose tissue: increases
Ripk1 expression in adipose tissue: reduces
